Data reported in US6709647B2, “Antimicrobial deodorant compositions” (Unilever Home & Personal Care USA, a division of Conopco, …, priority 2001, dated 2004).

What was measured:
[1] = system: Staphylococcus epidermidis; test: Cell suspension kill test in MES buffer, quench, plate count; format: cell-based; conditions: 50 mM MES pH 6.5; for Bacterial no. After 60 mins. / Bacterial no. Immediate: S. epidermidis suspension, amounts in weight %; for Bacterial no. Immediate: sample removed immediately; for Reduction in bacterial no. / Bacterial no. (concentration of bacteria remaining after 60 minutes): S. epidermidis; for Reduction in bacterial no.: amounts in mM; for Bacterial no. (concentration of bacteria remaining after 60 minutes): Table 6, percarbonate
Experimental: A cell suspension of Staphylococcus epidermidis in 50 mM MES buffer (2-[N-morpholino]ethanesulfonic acid, Sigma M5287) was prepared to an OD600 nm of 0.022 and equal portions were treated with the components indicated in Table 3, to give the weight percentages also indicated. Samples were removed immediately and after 60 minutes; said samples being decimally diluted in a quench solution (vide infra) and then plated onto a suitable culture medium. The plates were incubated at 37° C. for 48 hours, then read and the bacterial numbers calculated.
The quench solution used was a solution of:
in 37.5 mM phosphate buffer, at pH 7.9, containing 0.05% v/v Triton X-100 (iso-octyl phenoxy polyoxyethanol).
In this Table, the amounts indicated are milliMolar concentrations and the antimicrobial effect is expressed in terms of the reduction in bacterial numbers achieved.
In these Tables, the amounts indicated are milliMolar concentrations and the antimicrobial effect is expressed in terms of the concentration of bacteria remaining after 60 minutes.

Corynebacteria = test: Cell suspension kill test in MES buffer, quench, plate count (Corynebacteria); format: cell-based; conditions: amounts in mM; for Bacterial no. After 60 mins.: 50 mM MES pH 6.5, after 60 minutes; for Bacterial no. Immediate: 50 mM MES pH 6.5, sample removed immediately
Experimental: A cell suspension of Staphylococcus epidermidis in 50 mM MES buffer (2-[N-morpholino]ethanesulfonic acid, Sigma M5287) was prepared to an OD600 nm of 0.022 and equal portions were treated with the components indicated in Table 3, to give the weight percentages also indicated. […] The plates were incubated at 37° C. for 48 hours, then read and the bacterial numbers calculated. The quench solution used was a solution of: in 37.5 mM phosphate buffer, at pH 7.9, containing 0.05% v/v Triton X-100 (iso-octyl phenoxy polyoxyethanol). An analogous experiment to that performed with Example 3, with the modification of using Corynebacteria rather than S. epidermidis, was performed with the components indicated in Table 5. In this Table, the amounts indicated are milliMolar concentrations and the effect is expressed as in Table 3.

Compound | Reduction in bacterial no. [1] [Log10cfu/ml] | Bacterial no. After 60 mins. (Corynebacteria) [Log10cfu/ml] | Bacterial no. Immediate (Corynebacteria) [Log10cfu/ml] | other results
O=C(O)c1ccccn1 [D, Picolinic acid] |  |  |  | Bacterial no. After 60 mins. [1]: 6.50 Log10cfu/ml; Bacterial no. Immediate [1]: 6.60 Log10cfu/ml
O=C(CCCCCN1C(=O)c2ccccc2C1=O)OO [Example E, phthalimidoperoxy hexanoic acid] |  |  |  | Bacterial no. After 60 mins. [1]: 6.50 Log10cfu/ml; Bacterial no. Immediate [1]: 6.47 Log10cfu/ml
O=C(O)c1ccccn1 [Example F, Picolinic acid] | <2.59 |  |  | 
O.O=BO[O-].[Na+] [Example G, Perborate.H2O] | <2.59 |  |  | 
O=C(O)c1ccccn1 [J, Picolinic acid] |  | 6.0 | 6.1 | 
OO [K, Hydrogen peroxide] |  | 4.6 | 6.1 | 
O=C(O)CN(CCN(CC(=O)O)CC(=O)O)CCN(CC(=O)O)CC(=O)O [L, Diethylenetriaminapentaacetic acid] |  | 5.9 | 6.0 | 
O=C([O-])[O-].O=C([O-])[O-].OO.OO.OO.[Na+].[Na+].[Na+].[Na+] [N, Percarbonate] |  |  |  | Bacterial no. (concentration of bacteria remaining after 60 minutes) [1]: 6.13 Log10cfu/ml
O=C([O-])[O-].O=C([O-])[O-].OO.OO.OO.[Na+].[Na+].[Na+].[Na+] [O, Percarbonate] |  |  |  | Bacterial no. (concentration of bacteria remaining after 60 minutes) [1]: 6.39 Log10cfu/ml
Perborate.4 H2O [Example H] | <2.59 |  |  | 
